Blank lines part the entries; values can stand above or below the molecule they belong to.
What was measured:
[1] = target: MAP kinase-interacting serine/threonine-protein kinase 1 (Homo sapiens) (UniProt Q9BUB5); details: at 10 µM
Insulin receptor = Insulin receptor (Homo sapiens, UniProt P06213); assay: Selectivity interaction (Ambit KINOMEscan and KiNATiv profiling in Jurkat cells) EUB0000090b INSR; format: cell-based; details: at 1 µM
[2] = target: Vascular endothelial growth factor receptor 1 (Homo sapiens) (UniProt P17948); assay: Selectivity interaction (KinomeScan (DiscoverX)) EUB0000655a FLT1; details: at 10 µM
Chain of Vascular endothelial growth factor receptor 1 (Homo sapiens) (P17948 whole entry): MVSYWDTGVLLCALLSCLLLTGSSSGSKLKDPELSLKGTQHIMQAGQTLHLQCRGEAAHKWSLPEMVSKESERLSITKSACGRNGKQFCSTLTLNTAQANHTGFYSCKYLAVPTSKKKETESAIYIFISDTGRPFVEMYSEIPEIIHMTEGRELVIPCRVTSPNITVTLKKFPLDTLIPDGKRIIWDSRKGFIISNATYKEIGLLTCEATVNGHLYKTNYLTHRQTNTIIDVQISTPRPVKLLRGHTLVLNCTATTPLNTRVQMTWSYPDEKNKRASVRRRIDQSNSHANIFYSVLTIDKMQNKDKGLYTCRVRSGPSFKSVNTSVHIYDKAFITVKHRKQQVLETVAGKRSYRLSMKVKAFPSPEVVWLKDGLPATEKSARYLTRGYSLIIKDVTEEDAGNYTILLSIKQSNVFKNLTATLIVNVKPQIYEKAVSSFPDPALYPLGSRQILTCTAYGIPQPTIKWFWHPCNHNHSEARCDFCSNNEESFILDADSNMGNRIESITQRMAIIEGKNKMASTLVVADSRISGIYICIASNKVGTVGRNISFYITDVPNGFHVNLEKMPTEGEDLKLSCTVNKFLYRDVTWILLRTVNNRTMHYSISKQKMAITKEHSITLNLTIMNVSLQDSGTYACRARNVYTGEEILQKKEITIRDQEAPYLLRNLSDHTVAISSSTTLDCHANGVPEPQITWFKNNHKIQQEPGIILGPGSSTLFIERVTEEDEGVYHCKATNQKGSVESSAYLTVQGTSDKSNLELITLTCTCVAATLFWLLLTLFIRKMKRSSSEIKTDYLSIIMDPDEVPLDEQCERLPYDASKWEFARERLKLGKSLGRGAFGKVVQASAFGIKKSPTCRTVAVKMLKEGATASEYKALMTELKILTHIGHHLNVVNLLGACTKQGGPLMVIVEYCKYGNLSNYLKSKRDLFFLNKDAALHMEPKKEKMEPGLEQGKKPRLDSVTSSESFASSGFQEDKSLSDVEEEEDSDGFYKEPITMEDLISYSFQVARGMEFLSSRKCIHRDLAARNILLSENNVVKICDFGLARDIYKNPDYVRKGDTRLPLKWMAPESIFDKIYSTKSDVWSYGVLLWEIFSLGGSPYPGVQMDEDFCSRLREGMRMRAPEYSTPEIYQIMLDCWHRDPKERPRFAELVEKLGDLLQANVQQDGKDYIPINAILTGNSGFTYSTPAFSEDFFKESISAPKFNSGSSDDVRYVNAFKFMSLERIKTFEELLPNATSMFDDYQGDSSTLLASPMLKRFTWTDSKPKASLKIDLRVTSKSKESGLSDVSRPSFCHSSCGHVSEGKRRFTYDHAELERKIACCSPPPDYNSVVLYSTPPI

[3] = target: T1, Dual serine/threonine and tyrosine protein kinase (Homo sapiens) (UniProt Q6XUX3); assay: Selectivity interaction (KinomeScan (DiscoverX)) EUB0001079a DSTYK; details: at 1 µM
T1 sequence (whole entry): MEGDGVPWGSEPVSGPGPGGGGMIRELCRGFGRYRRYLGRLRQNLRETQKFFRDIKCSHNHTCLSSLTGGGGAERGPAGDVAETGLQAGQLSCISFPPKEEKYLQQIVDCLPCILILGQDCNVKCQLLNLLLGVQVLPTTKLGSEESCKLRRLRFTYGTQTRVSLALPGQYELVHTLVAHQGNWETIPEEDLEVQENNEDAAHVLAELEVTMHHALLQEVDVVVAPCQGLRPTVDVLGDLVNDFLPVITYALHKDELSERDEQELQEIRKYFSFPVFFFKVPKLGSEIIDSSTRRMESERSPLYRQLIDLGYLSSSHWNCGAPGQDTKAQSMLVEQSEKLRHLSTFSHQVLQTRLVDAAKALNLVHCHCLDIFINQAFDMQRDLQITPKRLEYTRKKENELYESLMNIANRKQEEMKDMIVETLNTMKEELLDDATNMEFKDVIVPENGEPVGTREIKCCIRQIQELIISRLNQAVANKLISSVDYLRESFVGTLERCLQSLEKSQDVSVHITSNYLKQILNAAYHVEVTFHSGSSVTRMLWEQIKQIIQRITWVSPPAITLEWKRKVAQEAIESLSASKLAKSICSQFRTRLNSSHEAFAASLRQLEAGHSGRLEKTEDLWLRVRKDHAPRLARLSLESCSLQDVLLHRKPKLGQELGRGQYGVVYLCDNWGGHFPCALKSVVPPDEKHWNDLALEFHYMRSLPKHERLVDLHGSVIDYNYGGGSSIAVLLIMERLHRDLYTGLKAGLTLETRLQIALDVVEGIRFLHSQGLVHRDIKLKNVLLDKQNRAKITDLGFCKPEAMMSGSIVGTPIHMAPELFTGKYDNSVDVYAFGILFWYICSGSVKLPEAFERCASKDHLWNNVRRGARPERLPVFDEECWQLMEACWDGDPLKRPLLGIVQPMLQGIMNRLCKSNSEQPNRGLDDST

[4] = target: MAP kinase-interacting serine/threonine-protein kinase 1 (Homo sapiens) (UniProt Q9BUB5); assay: Selectivity interaction (KinomeScan (DiscoverX)) EUB0000618a MKNK1; details: at 10 µM
[5] = target: Dual specificity tyrosine-phosphorylation-regulated kinase 1A (Homo sapiens, UniProt Q13627); assay: Selectivity interaction (SelectScreen profiling (Invitrogen)) EUB0000607a DYRK1A; details: at 2 µM
[6] = target: Tyrosine-protein kinase Lck (Homo sapiens, UniProt P06239); assay: Selectivity interaction (KinomeScan (DiscoverX)) EUB0000607a LCK; details: at 10 µM
Chain of Tyrosine-protein kinase Lck (P06239 2-509 limits assumed): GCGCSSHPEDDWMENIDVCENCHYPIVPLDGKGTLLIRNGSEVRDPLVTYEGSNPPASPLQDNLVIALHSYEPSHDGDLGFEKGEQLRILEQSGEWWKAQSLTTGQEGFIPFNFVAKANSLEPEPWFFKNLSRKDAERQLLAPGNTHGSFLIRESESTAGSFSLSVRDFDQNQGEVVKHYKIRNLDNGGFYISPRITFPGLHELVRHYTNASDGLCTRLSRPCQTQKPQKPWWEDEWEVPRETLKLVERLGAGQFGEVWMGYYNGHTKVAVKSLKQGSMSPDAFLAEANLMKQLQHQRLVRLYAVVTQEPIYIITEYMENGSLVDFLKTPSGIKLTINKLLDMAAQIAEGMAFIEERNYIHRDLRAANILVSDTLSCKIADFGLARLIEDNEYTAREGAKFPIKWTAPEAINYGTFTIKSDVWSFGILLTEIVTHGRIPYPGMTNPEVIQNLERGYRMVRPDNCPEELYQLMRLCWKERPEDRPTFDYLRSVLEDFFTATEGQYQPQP

[7] = target: Serine/threonine-protein kinase RIO2 (Homo sapiens) (UniProt Q9BVS4); assay: Selectivity interaction (KinomeScan (DiscoverX)) EUB0000045b RIOK2
Chain of Serine/threonine-protein kinase RIO2 (Homo sapiens) (Q9BVS4 whole entry, looked up): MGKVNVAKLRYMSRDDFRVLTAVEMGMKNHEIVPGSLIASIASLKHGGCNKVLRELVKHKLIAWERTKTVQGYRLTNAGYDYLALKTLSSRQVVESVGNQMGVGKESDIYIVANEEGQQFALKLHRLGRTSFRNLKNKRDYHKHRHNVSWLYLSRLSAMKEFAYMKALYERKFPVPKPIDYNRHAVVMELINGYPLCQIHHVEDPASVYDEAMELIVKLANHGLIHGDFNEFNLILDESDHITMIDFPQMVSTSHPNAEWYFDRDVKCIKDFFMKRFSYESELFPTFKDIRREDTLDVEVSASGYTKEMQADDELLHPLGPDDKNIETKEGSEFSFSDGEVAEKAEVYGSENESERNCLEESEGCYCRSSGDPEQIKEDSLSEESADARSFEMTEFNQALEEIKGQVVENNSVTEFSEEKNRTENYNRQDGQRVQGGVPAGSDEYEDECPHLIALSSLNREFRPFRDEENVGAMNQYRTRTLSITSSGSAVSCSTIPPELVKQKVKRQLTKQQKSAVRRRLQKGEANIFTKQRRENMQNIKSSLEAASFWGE

[8] = tested on: Serine/threonine-protein kinase B-raf (Homo sapiens), P15056 [V600E]; details: at 10 µM
[9] = target: Serine/threonine-protein kinase 33 (Homo sapiens) (UniProt Q9BYT3); details: at 10 µM
[10] = tested on: Tyrosine-protein kinase ABL1 (Homo sapiens), P00519 [Q252H]; assay: Selectivity interaction (KinomeScan (DiscoverX)) EUB0000229b ABL1; details: at 1 µM
[11] = target: Ephrin type-A receptor 7 (Homo sapiens) (UniProt Q15375); assay: Selectivity interaction (KinomeScan (DiscoverX)) EUB0000229b EPHA7; details: at 10 µM
Chain of Ephrin type-A receptor 7 (Homo sapiens) (Q15375 28-998 limits assumed): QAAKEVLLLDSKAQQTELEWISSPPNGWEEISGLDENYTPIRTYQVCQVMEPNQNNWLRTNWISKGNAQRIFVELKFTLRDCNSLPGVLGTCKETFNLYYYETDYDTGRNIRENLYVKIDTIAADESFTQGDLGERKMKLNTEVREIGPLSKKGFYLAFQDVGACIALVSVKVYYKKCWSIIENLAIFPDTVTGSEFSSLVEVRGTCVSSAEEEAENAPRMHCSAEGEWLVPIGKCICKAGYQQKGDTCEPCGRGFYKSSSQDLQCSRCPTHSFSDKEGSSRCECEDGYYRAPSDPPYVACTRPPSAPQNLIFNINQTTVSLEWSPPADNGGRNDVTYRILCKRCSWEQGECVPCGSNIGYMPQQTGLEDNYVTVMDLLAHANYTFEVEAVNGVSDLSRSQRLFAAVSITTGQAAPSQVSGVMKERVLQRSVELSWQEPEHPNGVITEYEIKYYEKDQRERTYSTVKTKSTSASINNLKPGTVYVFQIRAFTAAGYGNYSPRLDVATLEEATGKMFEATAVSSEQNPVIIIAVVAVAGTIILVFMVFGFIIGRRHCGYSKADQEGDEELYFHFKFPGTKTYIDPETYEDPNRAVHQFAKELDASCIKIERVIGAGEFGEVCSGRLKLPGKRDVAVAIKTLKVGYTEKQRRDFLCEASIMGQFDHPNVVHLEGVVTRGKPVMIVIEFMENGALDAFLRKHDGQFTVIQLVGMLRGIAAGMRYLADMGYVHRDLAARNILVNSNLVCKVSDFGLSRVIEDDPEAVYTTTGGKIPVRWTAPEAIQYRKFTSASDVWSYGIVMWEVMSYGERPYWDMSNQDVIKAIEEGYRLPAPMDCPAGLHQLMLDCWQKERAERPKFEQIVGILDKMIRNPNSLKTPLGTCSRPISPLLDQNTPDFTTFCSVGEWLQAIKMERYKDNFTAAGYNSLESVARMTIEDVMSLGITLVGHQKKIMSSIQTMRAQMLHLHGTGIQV

[12] = target: Protein kinase C alpha type (Homo sapiens, UniProt P17252); assay: Selectivity interaction (ProQinase) EUB0000171b PRKCA
[13] = target: T2, Tyrosine-protein kinase receptor TYRO3 (Homo sapiens) (UniProt Q06418); assay: Selectivity interaction (ProQinase) EUB0000171b TYRO3
T2 sequence (whole entry): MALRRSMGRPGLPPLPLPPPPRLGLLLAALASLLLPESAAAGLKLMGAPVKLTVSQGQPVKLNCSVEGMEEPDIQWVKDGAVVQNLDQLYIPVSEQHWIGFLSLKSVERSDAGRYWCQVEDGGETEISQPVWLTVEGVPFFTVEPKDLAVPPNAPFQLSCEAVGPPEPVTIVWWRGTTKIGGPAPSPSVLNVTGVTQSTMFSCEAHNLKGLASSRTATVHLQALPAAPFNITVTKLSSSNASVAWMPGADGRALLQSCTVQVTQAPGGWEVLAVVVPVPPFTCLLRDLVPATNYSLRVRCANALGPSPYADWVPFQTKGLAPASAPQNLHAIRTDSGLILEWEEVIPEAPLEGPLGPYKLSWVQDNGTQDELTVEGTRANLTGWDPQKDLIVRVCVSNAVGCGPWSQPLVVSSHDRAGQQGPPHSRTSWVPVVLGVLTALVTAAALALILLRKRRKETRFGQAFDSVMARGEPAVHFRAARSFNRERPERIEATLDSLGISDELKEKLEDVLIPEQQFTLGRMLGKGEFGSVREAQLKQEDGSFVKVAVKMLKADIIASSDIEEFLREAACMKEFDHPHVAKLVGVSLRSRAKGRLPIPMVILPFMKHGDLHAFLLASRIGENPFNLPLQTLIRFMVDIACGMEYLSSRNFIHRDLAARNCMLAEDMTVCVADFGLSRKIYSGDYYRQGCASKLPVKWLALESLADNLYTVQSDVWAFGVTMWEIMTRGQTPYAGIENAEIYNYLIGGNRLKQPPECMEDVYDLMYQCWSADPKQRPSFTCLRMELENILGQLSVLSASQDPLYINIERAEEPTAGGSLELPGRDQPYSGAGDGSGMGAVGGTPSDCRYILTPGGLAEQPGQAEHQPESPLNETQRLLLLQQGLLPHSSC

[14] = target: 5-hydroxytryptamine receptor 2A (Homo sapiens, UniProt P28223); assay: Selectivity interaction (Panel of kinases, GPCRs, ion channels and transporters (enzymatic assay)) EUB0000266bCl HTR2A
Chain of 5-hydroxytryptamine receptor 2A (P28223 whole entry): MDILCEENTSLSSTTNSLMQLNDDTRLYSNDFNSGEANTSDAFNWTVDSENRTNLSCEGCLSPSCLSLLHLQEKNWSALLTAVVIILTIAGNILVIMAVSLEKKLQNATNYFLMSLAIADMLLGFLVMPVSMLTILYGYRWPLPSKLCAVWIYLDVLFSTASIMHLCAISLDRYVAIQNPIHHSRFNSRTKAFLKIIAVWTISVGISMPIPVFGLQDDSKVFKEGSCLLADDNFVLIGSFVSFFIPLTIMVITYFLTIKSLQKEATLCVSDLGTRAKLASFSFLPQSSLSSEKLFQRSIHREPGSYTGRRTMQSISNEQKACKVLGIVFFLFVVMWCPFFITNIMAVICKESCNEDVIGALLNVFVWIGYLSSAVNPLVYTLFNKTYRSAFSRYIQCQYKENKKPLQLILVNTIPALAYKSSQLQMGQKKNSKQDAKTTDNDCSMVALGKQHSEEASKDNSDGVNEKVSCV

Chain of MAP kinase-interacting serine/threonine-protein kinase 1 (Homo sapiens) (Q9BUB5 whole entry, looked up): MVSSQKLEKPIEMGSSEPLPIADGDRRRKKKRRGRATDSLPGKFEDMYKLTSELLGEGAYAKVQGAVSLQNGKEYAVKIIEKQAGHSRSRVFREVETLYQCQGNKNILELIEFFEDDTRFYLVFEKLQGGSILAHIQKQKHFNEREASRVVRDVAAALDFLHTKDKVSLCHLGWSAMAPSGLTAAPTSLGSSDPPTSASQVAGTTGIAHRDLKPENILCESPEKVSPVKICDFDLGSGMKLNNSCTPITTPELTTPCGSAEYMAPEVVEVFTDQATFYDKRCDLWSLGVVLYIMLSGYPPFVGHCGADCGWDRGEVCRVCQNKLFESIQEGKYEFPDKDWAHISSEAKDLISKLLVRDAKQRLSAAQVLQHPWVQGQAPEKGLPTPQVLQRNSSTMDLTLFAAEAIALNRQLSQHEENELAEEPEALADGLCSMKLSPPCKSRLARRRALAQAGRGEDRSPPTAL

% of control [1]: 100%
Structure (SMILES): CCN(CC)CCCCNc1ncc2cc(-c3cc(OC)cc(OC)c3)c(NC(=O)NC(C)(C)C)nc2n1

Structure (SMILES): CN(C)C/C=C/C(=O)Nc1ccc(C(=O)N2CCCC(Nc3ncc(Cl)c(-c4c[nH]c5ccccc45)n3)C2)cc1 (stereo not drawn)
% of control (Insulin receptor): 100%

Structure (SMILES): CN(C)CCOc1ccc(-c2nc(-c3ccncc3)c(-c3ccc4c(c3)CC/C4=N\O)[nH]2)cc1
% of control [2]: 79%

Structure (SMILES): Nc1cnc(N2CCc3cc(S(=O)(=O)Nc4c(F)cc(Cl)cc4F)cc(N4CCCC4=O)c32)nc1 [TP-020n]
% of control [3]: 100%

Structure (SMILES): O[C@H]1CC[C@H](Nc2ncc3nc(Nc4c(F)cc(F)cc4F)n([C@H]4CCOC4)c3n2)CC1
% of control [4]: 94%

Structure (SMILES): CNC(=O)Nc1ccc(-c2nc(N3CC4CCC(C3)O4)c3cnn(C4CCC5(CC4)OCCO5)c3n2)cc1
% of inhibition [5]: 2% | % of control [6]: 100%

Structure (SMILES): C=CC(=O)Nc1cc(-n2c(=O)ccc3cnc4ccc(-c5ccc(NS(C)(=O)=O)cc5)cc4c32)ccc1C
% of control ([7]; at 1 µM): 66% | % of control ([7]; at 10 µM): 43%

Structure (SMILES): Cc1cc([C@@H](C)Nc2ccccc2C(=O)O)c2nc(N3CCOCC3)cc(=O)n2c1 [AZD-6482]
% of control [8]: 92% | % of control [9]: 100%

Structure (SMILES): COc1cc(N(C)c2ccnc3ccc(C(F)(F)F)cc23)cc(OC)c1OC
% binding [10]: 91% | % binding [11]: 99%

% of control ([12]; at 1 µM): 102% | % of control ([12]; at 5 µM): 80% | % of control ([13]; at 1 µM): 100% | % of control ([13]; at 5 µM): 86%
Structure (SMILES): C=CC(=O)Nc1cccc(C(=O)Nc2ccc(Nc3cc(-c4[nH]c(SC)nc4C)ccn3)cc2)c1

pXC50 [14]: < 4.4 M
Structure (SMILES): CCn1c(-c2nc3cc(C(=O)N4CCCC(N)C4)ccc3n2C)cc2ccccc21 (stereo not drawn)
